Source: patent US20240158446A1, “CYCLIC COMPOUND HAVING SELECTIVE INHIBITORY ACTION ON KRAS OVER HRAS AND NRAS” (CHUGAI SEIYAKU KABUSHIKI KAISHA, priority 2021, published 2024)

Legend:
[1] = system: human lung cancer strain NCI-H441;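 further: cell proliferation inhibition after four days measured by CellTiter-Glo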
[2] = biological target: GDP-bound NRAS wild-type protein (Homo sapiens, UniProt P01111); assay: Binding to NRAS by surface plasmon resonance (SPR), Single Cycle Kinetics; conditions: SPR, GDP-bound NRAS wild-type protein vs GDP-bound KRAS wild-type protein
GDP-bound NRAS wild-type protein, sequence (P01111 whole entry): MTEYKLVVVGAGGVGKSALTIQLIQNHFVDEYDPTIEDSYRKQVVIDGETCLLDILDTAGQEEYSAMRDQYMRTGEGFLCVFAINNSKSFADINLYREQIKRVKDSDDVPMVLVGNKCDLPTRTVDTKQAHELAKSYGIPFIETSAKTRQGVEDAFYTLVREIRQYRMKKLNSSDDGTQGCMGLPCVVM

[3] = biological target: GDP-bound KRAS wild-type protein (Homo sapiens, UniProt P01116); assay: Binding to KRAS by surface plasmon resonance (SPR), Single Cycle Kinetics; conditions: SPR, Single Cycle Kinetics, GDP-bound KRAS wild-type protein; read-out: KRAS KD
GDP-bound KRAS wild-type protein, sequence (P01116 whole entry): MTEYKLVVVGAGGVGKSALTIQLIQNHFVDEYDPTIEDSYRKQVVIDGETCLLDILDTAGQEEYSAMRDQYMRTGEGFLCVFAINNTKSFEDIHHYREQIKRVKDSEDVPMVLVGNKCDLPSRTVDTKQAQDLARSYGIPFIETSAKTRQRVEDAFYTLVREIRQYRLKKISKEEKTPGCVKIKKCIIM

[4] = biological target: GDP-bound HRAS wild-type protein (Homo sapiens, UniProt P01112); assay: Binding to HRAS by surface plasmon resonance (SPR), Single Cycle Kinetics; conditions: SPR, GDP-bound HRAS wild-type protein vs GDP-bound KRAS wild-type protein
GDP-bound HRAS wild-type protein, sequence (P01112 whole entry): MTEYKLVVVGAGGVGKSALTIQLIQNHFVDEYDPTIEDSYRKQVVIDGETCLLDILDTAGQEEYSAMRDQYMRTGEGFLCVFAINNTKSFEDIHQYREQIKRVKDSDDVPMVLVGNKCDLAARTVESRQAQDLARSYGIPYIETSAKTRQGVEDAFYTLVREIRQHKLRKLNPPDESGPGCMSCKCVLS

SMILES | IC50 [1] | NRAS/KRAS (ratio of KD value for NRAS to KD value for KRAS) [2] | Kd [3] | HRAS/KRAS (ratio of KD value for HRAS to KD value for KRAS) [4]
CCCOC[C@H]1C(=O)N[C@@H]([C@@H](C)CC)C(=O)N(C)CC(=O)N(C)[C@H]2C/C=C\CCN(C2=O)[C@@H](Cc2ccc(C)cc2)C(=O)N(C)CC(=O)N[C@@H](CCc2ccc(C(F)(F)F)c(OC)c2)C(=O)N2C[C@@H](C)C[C@H]2C(=O)NC2(CC(C)(C)C2)C(=O)N(C)[C@@H](C2CCCC2)C(=O)N(C)[C@H](C(=O)N(C)CC)CC(=O)N1C [PP2461] | 10.6 nM | A (a compound having 10 or more and less than 20 is denoted as A) | 0.15 nM | A (a compound having 10 or more and less than 20 is denoted as A)
CCOC[C@H]1C(=O)N[C@@H]([C@@H](C)CC)C(=O)N(C)CC(=O)N(C)[C@H]2C/C=C\CCN(C2=O)[C@@H](CC2CCC(F)(F)CC2)C(=O)N(C)CC(=O)N[C@@H](CCc2cc(F)c(C(F)(F)F)c(F)c2)C(=O)N2C[C@@H](C)C[C@H]2C(=O)NC2(CC(C)(C)C2)C(=O)N(C)[C@@H](C(CC)CC)C(=O)N(C)[C@H](C(=O)N(C)C)CC(=O)N1C [PP2462] | 87.2 nM | A (a compound having 10 or more and less than 20 is denoted as A) | 1.6 nM | A (a compound having 10 or more and less than 20 is denoted as A)
CCCOC[C@H]1C(=O)N[C@@H]([C@@H](C)CC)C(=O)N(C)CC(=O)N(C)[C@H]2C/C=C\CCN(C2=O)[C@@H](Cc2ccc(C)cc2)C(=O)N(C)CC(=O)N[C@@H](CCc2ccc(C(F)(F)F)c(OC)c2)C(=O)N2C[C@H](OCC)C[C@H]2C(=O)NC2(CC(C)(C)C2)C(=O)N(C)[C@@H](C2CCCC2)C(=O)N(C)[C@H](C(=O)N(C)CC)CC(=O)N1C [PP2463] | 6.5 nM | A (a compound having 10 or more and less than 20 is denoted as A) | 0.11 nM | A (a compound having 10 or more and less than 20 is denoted as A)
CCCOC[C@H]1C(=O)N[C@@H]([C@@H](C)CC)C(=O)N(C)CC(=O)N(C)[C@H]2C/C=C\CCN(C2=O)[C@@H](CC2CCC(F)(F)CC2)C(=O)N(C)CC(=O)N[C@@H](CCc2ccc(C(F)(F)F)c(OC)c2)C(=O)N2C[C@H](OCC)C[C@H]2C(=O)NC2(CC(C)(C)C2)C(=O)N(C)[C@@H](C(CC)CC)C(=O)N(C)[C@H](C(=O)N(C)C)CC(=O)N1C [PP2464] | 66 nM | A (a compound having 10 or more and less than 20 is denoted as A) | 0.98 nM | A (a compound having 10 or more and less than 20 is denoted as A)
CCOC[C@H]1C(=O)N[C@@H]([C@@H](C)CC)C(=O)N(C)CC(=O)N(C)[C@H]2C/C=C\CCN(C2=O)[C@@H](Cc2ccc(C)cc2)C(=O)N(C)CC(=O)N[C@@H](CCc2ccc(C(F)(F)F)c(Cl)c2)C(=O)N2C[C@@H](C)C[C@H]2C(=O)NC2(CC(C)(C)C2)C(=O)N(C)[C@@H](C2CCCC2)C(=O)N(C)[C@H](C(=O)N(CC)CC)CC(=O)N1C [PP2465] | 39.4 nM | AA (a compound having 20 or more is denoted as AA) | 0.51 nM | A (a compound having 10 or more and less than 20 is denoted as A)
CCC(CC)[C@H]1C(=O)N(C)[C@H](C(=O)N(C)C)CC(=O)N(C)[C@@H](COC)C(=O)N[C@@H]([C@@H](C)CC)C(=O)N(C)CC(=O)N(C)[C@H]2C/C=C\CCN(C2=O)[C@@H](CC2CCCCC2)C(=O)N(C)CC(=O)N[C@@H](CCc2ccc(C(F)(F)F)c(OC)c2)C(=O)N2C[C@@H](C)C[C@H]2C(=O)NC2(CC(C)(C)C2)C(=O)N1C [PP2466] | 170 nM | A (a compound having 10 or more and less than 20 is denoted as A) | 3.9 nM | A (a compound having 10 or more and less than 20 is denoted as A)
CCCOC[C@H]1C(=O)N[C@@H]([C@@H](C)CC)C(=O)N(C)CC(=O)N(C)[C@H]2C/C=C\CCN(C2=O)[C@@H](Cc2ccc(C)cc2)C(=O)N(C)CC(=O)N[C@@H](CCc2ccc(C(F)(F)F)c(Cl)c2)C(=O)N2C[C@@H](C)C[C@H]2C(=O)NC2(CC(C)(C)C2)C(=O)N(C)[C@@H](C2CCCC2)C(=O)N(C)[C@H](C(=O)N(C)CC)CC(=O)N1C [PP2467] | 21.8 nM | A (a compound having 10 or more and less than 20 is denoted as A) | 0.26 nM | B (a compound having 3 or more and less than 10 is denoted as B)
CCO[C@@H]1C[C@H]2C(=O)NC3(CC(C)(C)C3)C(=O)N(C)[C@@H](C(CC)CC)C(=O)N(C)[C@H](C(=O)N(C)C)CC(=O)N(C)[C@@H](COC)C(=O)N[C@@H]([C@@H](C)CC)C(=O)N(C)CC(=O)N(C)[C@H]3C/C=C\CCN(C3=O)[C@@H](CC3CCCCC3)C(=O)N(C)CC(=O)N[C@@H](CCc3ccc(C(F)(F)F)c(Cl)c3)C(=O)N2C1 [PP2468] | 72.2 nM | AA (a compound having 20 or more is denoted as AA) | 1.3 nM | A (a compound having 10 or more and less than 20 is denoted as A)
CCCOC[C@H]1C(=O)N[C@@H]([C@@H](C)CC)C(=O)N(C)CC(=O)N(C)[C@H]2C/C=C\CCN(C2=O)[C@@H](Cc2ccc(C)cc2)C(=O)N(C)CC(=O)N[C@@H](CCc2ccc(C(F)(F)F)c(Cl)c2)C(=O)N2C[C@H](OCC)C[C@H]2C(=O)NC2(CC(C)(C)C2)C(=O)N(C)[C@@H](C2CCCC2)C(=O)N(C)[C@H](C(=O)N(C)CC)CC(=O)N1C [PP2469] | 15.7 nM | A (a compound having 10 or more and less than 20 is denoted as A) | 0.19 nM | B (a compound having 3 or more and less than 10 is denoted as B)
CCOC[C@H]1C(=O)N[C@@H]([C@@H](C)CC)C(=O)N(C)CC(=O)N(C)[C@H]2C/C=C\CCN(C2=O)[C@@H](CC2CCCCC2)C(=O)N(C)CC(=O)N[C@@H](CCc2ccc(C(F)(F)F)c(OC)c2)C(=O)N2C[C@H](OCC)C[C@H]2C(=O)NC2(CC(C)(C)C2)C(=O)N(C)[C@@H](C(CC)CC)C(=O)N(C)[C@H](C(=O)N(C)C)CC(=O)N1C [PP2470] | 118 nM | A (a compound having 10 or more and less than 20 is denoted as A) | 1.8 nM | A (a compound having 10 or more and less than 20 is denoted as A)
CCCOC[C@H]1C(=O)N[C@@H]([C@@H](C)CC)C(=O)N(C)CC(=O)N(C)[C@H]2C/C=C\CCN(C2=O)[C@@H](Cc2ccc(C)cc2)C(=O)N(C)CC(=O)N[C@@H](CCc2cc(F)c(C(F)(F)F)c(F)c2)C(=O)N2C[C@@H](C)C[C@H]2C(=O)NC2(CC(C)(C)C2)C(=O)N(C)[C@@H](C2CCCC2)C(=O)N(C)[C@H](C(=O)N(C)CC)CC(=O)N1C [PP2471] | 15.3 nM | A (a compound having 10 or more and less than 20 is denoted as A) | 0.16 nM | A (a compound having 10 or more and less than 20 is denoted as A)
CCCOC[C@H]1C(=O)N[C@@H]([C@@H](C)CC)C(=O)N(C)CC(=O)N(C)[C@H]2C/C=C\CCN(C2=O)[C@@H](CC2CCC(F)(F)CC2)C(=O)N(C)CC(=O)N[C@@H](CCc2cc(F)c(C(F)(F)F)c(F)c2)C(=O)N2C[C@H](OCC)C[C@H]2C(=O)NC2(CC(C)(C)C2)C(=O)N(C)[C@@H](C(CC)CC)C(=O)N(C)[C@H](C(=O)N(C)C)CC(=O)N1C [PP2472] | 42.3 nM | A (a compound having 10 or more and less than 20 is denoted as A) | 0.58 nM | A (a compound having 10 or more and less than 20 is denoted as A)
CCOC[C@H]1C(=O)N[C@@H]([C@@H](C)CC)C(=O)N(C)CC(=O)N(C)[C@H]2C/C=C\CCN(C2=O)[C@@H](CC2CCC(F)(F)CC2)C(=O)N(C)CC(=O)N[C@@H](CCc2ccc(C(F)(F)F)c(Cl)c2)C(=O)N2C[C@@H](C)C[C@H]2C(=O)NC2(CC(C)(C)C2)C(=O)N(C)[C@@H](C(CC)CC)C(=O)N(C)[C@H](C(=O)N(C)C)CC(=O)N1C [PP2475] | 176 nM | AA (a compound having 20 or more is denoted as AA) | 1.5 nM | A (a compound having 10 or more and less than 20 is denoted as A)
CCO[C@@H]1C[C@H]2C(=O)NC3(CC(C)(C)C3)C(=O)N(C)[C@@H](C(CC)CC)C(=O)N(C)[C@H](C(=O)N(C)C)CC(=O)N(C)[C@@H](C(C)C)C(=O)N[C@@H]([C@@H](C)CC)C(=O)N(C)CC(=O)N(C)[C@H]3C/C=C\CCN(C3=O)[C@@H](CC3CCC(F)(F)CC3)C(=O)N(C)CC(=O)N[C@@H](CCc3ccc(C(F)(F)F)c(OC)c3)C(=O)N2C1 [PP2477] | 127 nM | A (a compound having 10 or more and less than 20 is denoted as A) | 1.8 nM | A (a compound having 10 or more and less than 20 is denoted as A)
CCOC[C@H]1C(=O)N[C@@H]([C@@H](C)CC)C(=O)N(C)CC(=O)N(C)[C@H]2C/C=C\CCN(C2=O)[C@@H](CC2CCCCC2)C(=O)N(C)CC(=O)N[C@@H](CCc2cc(F)c(C(F)(F)F)c(F)c2)C(=O)N2C[C@H](OCC)C[C@H]2C(=O)NC2(CC(C)(C)C2)C(=O)N(C)[C@@H](C(CC)CC)C(=O)N(C)[C@H](C(=O)N(C)C)CC(=O)N1C [PP2479] | 26 nM | AA (a compound having 20 or more is denoted as AA) | 1.4 nM | A (a compound having 10 or more and less than 20 is denoted as A)
